In ChEMBL document CHEMBL2390891, “Discovery of new potent inhibitors for carbonic anhydrase IX by structure-based virtual screening” (Bioorg Med Chem Lett, 2013):

Columns and labels:
Carbonic anhydrase 9 = Carbonic anhydrase 9 (Homo sapiens, UniProt Q16790); experiment: Inhibition of GST-tagged recombinant carbonic anhydrase-9 catalytic domain (unknown origin)
Carbonic anhydrase 2 = Carbonic anhydrase 2 (Homo sapiens, UniProt P00918); experiment: Inhibition of full length carbonic anhydrase-2 in human erythrocytes; format: cell-based
Carbonic anhydrase 1 = Carbonic anhydrase 1 (Homo sapiens, UniProt P00915); experiment: Inhibition of full length carbonic anhydrase-1 in human erythrocytes; format: cell-based
Sequence of Carbonic anhydrase 1 (P00915 whole entry): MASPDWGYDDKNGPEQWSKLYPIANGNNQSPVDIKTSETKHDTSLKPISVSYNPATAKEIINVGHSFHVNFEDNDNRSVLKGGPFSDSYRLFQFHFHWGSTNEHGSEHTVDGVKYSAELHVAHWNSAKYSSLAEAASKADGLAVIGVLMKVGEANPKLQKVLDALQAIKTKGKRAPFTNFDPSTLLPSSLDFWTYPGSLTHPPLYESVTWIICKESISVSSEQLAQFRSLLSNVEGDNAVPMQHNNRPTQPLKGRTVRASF

| SMILES | IC50 (Carbonic anhydrase 9) [µM] | IC50 (Carbonic anhydrase 2) [µM] | IC50 (Carbonic anhydrase 1) [µM] |
| --- | --- | --- | --- |
| NS(=O)(=O)c1cc(C(=O)NCCOc2ccccc2)c(Cl)cc1Cl | 0.0104 | 0.0106 | 0.0167 |
| NS(=O)(=O)c1ccc(NC(=S)NC(=O)c2ccccc2)cc1 | 0.00286 |  |  |
| NS(=O)(=O)c1ccc(-n2cccc2/C=C2/C(=O)NN(c3ccc(F)cc3)C2=O)cc1 | 0.00311 | 0.042 |  |
| NS(=O)(=O)c1ccc(/N=C2/NC(=O)/C(=C/c3cc(O)ccc3Br)S2)cc1 | 0.00453 |  |  |
| Cc1ccc(N2NC(=O)/C(=C/c3cccn3-c3ccc(S(N)(=O)=O)cc3)C2=O)cc1 | 0.0149 |  |  |
| NS(=O)(=O)c1ccc(CCNCc2cccc3ccccc23)cc1 | 0.0188 | 0.153 | 0.173 |
| NS(=O)(=O)c1cccc(NS(=O)(=O)c2ccc3c4c(cccc24)C(=O)N3)c1 | 0.0284 |  |  |
| COc1ccc(Cl)cc1CNCCc1ccc(S(N)(=O)=O)cc1 | 0.0685 |  |  |
| COc1ccc(CNc2ccc(S(N)(=O)=O)cc2)cc1OC | 0.342 |  |  |

Further lines, results first:

| IC50 (Carbonic anhydrase 9) [µM] | IC50 (Carbonic anhydrase 2) [µM] | IC50 (Carbonic anhydrase 1) [µM] | SMILES |
| --- | --- | --- | --- |
| 0.0191 |  |  | CC1=NN(c2ccc(S(N)(=O)=O)cc2)C(=O)/C1=C\C=C\c1ccccc1 |
| 0.0216 |  |  | NS(=O)(=O)c1ccc(NC(=O)c2cccc(N3C(=O)CCC3=O)c2)cc1 |
| 0.199 |  |  | NS(=O)(=O)c1ccc(CNC2CC(=O)N(c3cccc(Br)c3)C2=O)cc1 (stereo not given) |
| 0.588 | 0.809 | 1.19 | CC1=NN(c2cccc(S(N)(=O)=O)c2)C(=O)C1 |
